Laboratory results from patent US9572786B2, “Use of capsiate or dihydrocapsidate” (Catholic University Industry Academy Cooperation Foundation, priority 2007, dated 2017).

Key:
COX-2 = experiment: UV-induced COX-2 expression, Western blotting; assay type: cell-based, human; conditions: HaCaT cells; 10, 25, 50 μM; UV 100 J/m^2; 16 hours
Description: In order to investigate the effect of capsiate on UV-induced COX-2 expression in human keratinocytes, 5×10^5 HaCaT cells were placed on a 60 mm Petri dish and cultured for 24 hours in DMEM containing 10% FBS.
Subsequently, the cells were cultured for 24 hours in DMEM containing 1% FBS until starvation. Then, after treating with capsiate for 30 minutes at different concentrations (10 μM, 25 μM, 50 μM), followed by washing 3 times with PBS, UV was irradiated at an intensity of 100 J/m^2 in order to induce the expression of COX-2. Immediately after the UV irradiation, the cells were washed again with PBS and further cultured for 16 hours in DMEM containing 1% FBS, which was treated with capsiate at the same concentration as in the pre-treatment.
Western blotting was carried out as follows in order to evaluate the degree of COX-2 expression in the cells. […]
In order to investigate the effect of dihydrocapsiate on UV-induced COX-2 expression in human keratinocytes, the degree of COX-2 expression was evaluated in the same manner as Example 2-1, except for using dihydrocapsiate instead of capsiate.

[1] = tested on: Human umbilical vein endothelial cells (HUVEC); experiment: VEGF-induced proliferation of endothelial cells, MTT assay; assay type: cell-based; conditions: for proliferation of HUVEC induced by VEGF (MTT): 1, 5, 10, 25 μM, 10 ng/mL VEGF, 48 hours; for growth of HUVEC without VEGF (cell toxicity): concentration up to 50 μM without VEGF, not shown in figure
Description: MTT assay was carried out investigate the effect of capsiate or dihydrocapsiate on the proliferation of endothelial cells (EC) induced by VEGF.
Human umbilical vein endothelial cells (HUVEC) were placed on a gelatin-coated 24-well plate at a concentration of 2×10^4 cells/well. After culturing for 24 hours, followed by washing twice with M199 medium (Invitrogen, USA), the cells were cultured for 6 hours in M199 medium containing 1% FBS. After addition of capsiate or dihydrocapsiate at different concentrations (1 μM, 5 μM, 10 μM, 25 μM), followed by pre-culturing for 30 minutes, 10 ng/mL VEGF (Upstate, USA) was added and the cells were cultured for 48 hours. Then, 3-(4,5-dimethylthiazol-2-yl)-2,5-diphenyltetrazolium bromide salt (MTT) solution (0.5 mg/mL) was added and the cells were cultured at 37° C. for 3 hours. Remaining MTT was cautiously removed and the formed crystal was dissolved in DMSO for 30 minutes and subjected to absorbance measurement at 560 nm after mixing well for 5 minutes.

HUVEC = experiment: [14C] sucrose permeability assay; assay type: cell-based, human; conditions: 5, 10, 25 μM, VEGF 50 ng/mL for 1 hour
Description: [^14C] sucrose permeability assay was carried out in order to identify the effect of capsiate or dihydrocapsiate on VEGF-induced endothelial permeability. In brief, HUVEC were placed on a transwell filter (Corning Costar). At confluence, the cells were cultured in M199 medium containing 1% FBS for 3 hours. After treating with capsiate or dihydrocapsiate at different concentrations (5 μM, 10 μM, 25 μM) for 30 minutes, the cells were treated with VEGF (50 ng/mL) for 1 hour. [^14C] sucrose (0.8 μCi/mL, 50 μL) was added to the upper compartment. 30 minutes later, the irradiation level was measured at the lower compartment using a scintillation counter (Wallac, PerkinElmer).

VE-cadherin = VE-cadherin expression in the intercellular junction, immunofluorescence; assay type: cell-based, human; conditions: HUVEC; 5, 10, 25 μM pre-treatment; VEGF 50 ng/mL for 1 hour
Description: In order to identify if the change of permeability of endothelial cells is related with VE-cadherin, the level of VE-cadherin expression in the intercellular junction was investigated.
HUVEC were placed on a gelatin-coated cover slip at a concentration of 12×10^5 cells/well and cultured for 24 hours. After washing twice with M199 medium, the cells were cultured in M199 medium containing 1% for 6 hours. After treating with capsiate or dihydrocapsiate at different concentrations (5 μM, 10 μM, 25 μM) for 30 minutes, the cells were treated with VEGF (50 ng/mL) for 1 hour. The cells were fixed and made permeable by treating with 2% formaldehyde for 10 minutes, and washed 3 times with PBS. Subsequently, the cells were treated with 0.1% Triton X-100 and 2% bovine serum albumin (BSA)/PBS blocking solution for 30 minutes. After labeling with VE-cadherin at room temperature for 2 hours, followed by washing with PBS, the cells were labeled again with FITC-conjugated secondary antibody at room temperature for 1 hour and 30 minutes. The cover slip was mounted on SloFade (Molecular Probes) and observed under a fluorescence microscope (Carl Zeiss).

aortic ring = experiment: Sprouting from the aortic ring; assay type: cell-based, Sprague Dawley rat; conditions: rat aortic ring in Matrigel; 6 days; evaluation 0 to 5 points
Description: The degree of sprouting from the aortic ring caused by treatment with VEGF was investigated as follows in order to identify the effect of capsiate or dihydrocapsiate on VEGF-induced angiogenesis.
The aortic ring was prepared from the artery of Sprague Dawley rat (6-8 weeks old). The aortic ring was placed on a 48-well plate coated with 120 μL of Matrigel and 50 μL of Matrigel was further added. Then, 200 μL of a medium (human endothelial serum-free medium, Invitrogen, USA) containing capsiate or dihydrocapsiate and VEGF or a medium containing only VEGF was added. 6 days later, the cells were fixed, stained using Diff-Quick and subjected to evaluation (0 to 5 points) in a double blinded manner.

CD31 = experiment: Endothelial cell content in Matrigel plug, CD31 immunohistochemical staining; assay type: in vivo; conditions: C57/BL6 mouse Matrigel plug; 60 μg; 100 ng VEGF
Description: Immunohistochemical staining was carried out using CD31 in order to measure the endothelial cell content in the Matrigel plug.
The Matrigel plug was fixed using 2% formaldehyde and moisture was removed from the Matrigel using 15% sucrose and 30% sucrose based on the principle of osmosis. Then, the Matrigel plug was hardened at −70° C. The hardened Matrigel plug was sliced with a thickness of 8-12 μm, stained with CD31-antibody (PECAM-1 antibody, BD Biosciences, USA) and the level of expression by endothelial cells was observed under a microscope.

SMILES	UV-induced COX-2 expression (COX-2)	proliferation of HUVEC induced by VEGF (MTT) [1]	growth of HUVEC without VEGF (cell toxicity) [1]	VEGF-increased permeability of endothelial cells (HUVEC)	cell adhesion ability of VE-cadherin in the intercellular junction (VE-cadherin)	VEGF-promoted sprouting from the aortic ring (aortic ring)	level of CD31 expression in Matrigel plug (CD31)
COc1cc(COC(=O)CCCC/C=C/C(C)C)ccc1O [capsiate]	decreased in a concentration-dependent manner	inhibited by capsiate or dihydrocapsiate in a concentration-dependent manner	grew normally	decreased in a concentration-dependent manner	recovered	inhibited the sprouting in a concentration-dependent manner	decreased to the extent comparable to the control group
COc1cc(COC(=O)CCCCCCC(C)C)ccc1O [dihydrocapsiate]	decrease of the increased COX-2 expression in a concentration-dependent manner	inhibited by capsiate or dihydrocapsiate in a concentration-dependent manner	grew normally	decreased in a concentration-dependent manner	recovered	inhibited the sprouting in a concentration-dependent manner	decreased to the extent comparable to the control group
